Results: patent publication US20220347175A1, “PYRIDAZINONE DERIVATIVE” (Sumitomo Dainippon Pharma Co., Ltd., priority 2018, published 2022)
One block for each molecule: values may come before it.

How the values were obtained:
[1] = target: T1, human Nav1.1 (Homo sapiens, UniProt P35498); assay: Amplification of Nav1.1-derived voltage-dependent sodium current (Nav1.1 current), cell line stably expressing human Nav1.1, automated patch clamp; format: cell-based; details: for activation at 1 µM: Concentration 1 μM (Test Result 7); for activation at 1 µM / activation at 10 µM / activation at 50 µM: read-out: Nav1.1 current amplification rate (%); for activation at 10 µM: Concentration 10 μM (Test Result 7); for activation at 50 µM: Concentration 50 μM (Test Result 7)
T1 construct: host or cells: HEK293
Summary of the method: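 Amplification rate (%) is 100 × post-compound/pre-compound Nav1.1 peak current or AUC, minus 100. Ramp-evoked sodium currents were recorded by automated patch clamp in a human Nav1.1 HEK293 stable line, restricted to cells exceeding 500 pA, with compounds added in extracellular solution containing 1% DMSO.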

[2] = target: T2, human Nav1.5 (Homo sapiens, UniProt Q14524); assay: Amplification of Nav1.5-derived voltage-dependent sodium current (Nav1.5 current), cell line stably expressing human Nav1.5, automated patch clamp; format: cell-based
T2 construct: expressed in transfected cells; host or cells: CHO-K1 (T-REx System, ThermoFisher Scientific)
Protocol: Test 2: Evaluation of the Amplification in Nav1.5-Derived Voltage-Dependent Sodium Current (Nav1.5 Current) by Using a Cell Line Stably Expressing Human Nav1.5
A CHO-K1 cell line (Chinese hamster ovary) stably expressing human Nav1.5 (Gene Bank Accession No: P000326.2) was obtained by using purchased T-Rex System (ThermoFisher Scientific, USA), and used for the present test. The effect of test compounds on the amplification of Nav1.5 current was evaluated by using a cell line stably expressing human Nav1.5 and HTS automated patch clamp system, similarly in the method using Nav1.1. In other words, test compounds were added in an extracellular fluid which contained 1% DMSO and 500 nmol/L Tetrodotoxin (TTX), and evaluated as a change of the peak value of Nav1.5 current and the area under the curve (AUC). The induction and the measurement of Nav1.5 current, the pharmacologic effect on Nav1.5 current, and a method for pharmacological evaluation were carried out by the same method as in Nav1.1.

[3] = compound 3 μmol/L, HEK293 stably expressing human Nav1.1
[4] = compound 3 μmol/L, CHO-K1 stably expressing human Nav1.5
[5] = compound 1 μmol/L, HEK293 stably expressing human Nav1.1
[6] = compound 1 μmol/L, CHO-K1 stably expressing human Nav1.5
[7] = 10 μmol/L compound, change of the area under the curve of Nav1.1 current (Test Result 1)
[8] = 10 μmol/L compound, change of the area under the curve of Nav1.5 current (Test Result 1)

T2 sequence (Q14524 1-2015 isoform Q14524-2): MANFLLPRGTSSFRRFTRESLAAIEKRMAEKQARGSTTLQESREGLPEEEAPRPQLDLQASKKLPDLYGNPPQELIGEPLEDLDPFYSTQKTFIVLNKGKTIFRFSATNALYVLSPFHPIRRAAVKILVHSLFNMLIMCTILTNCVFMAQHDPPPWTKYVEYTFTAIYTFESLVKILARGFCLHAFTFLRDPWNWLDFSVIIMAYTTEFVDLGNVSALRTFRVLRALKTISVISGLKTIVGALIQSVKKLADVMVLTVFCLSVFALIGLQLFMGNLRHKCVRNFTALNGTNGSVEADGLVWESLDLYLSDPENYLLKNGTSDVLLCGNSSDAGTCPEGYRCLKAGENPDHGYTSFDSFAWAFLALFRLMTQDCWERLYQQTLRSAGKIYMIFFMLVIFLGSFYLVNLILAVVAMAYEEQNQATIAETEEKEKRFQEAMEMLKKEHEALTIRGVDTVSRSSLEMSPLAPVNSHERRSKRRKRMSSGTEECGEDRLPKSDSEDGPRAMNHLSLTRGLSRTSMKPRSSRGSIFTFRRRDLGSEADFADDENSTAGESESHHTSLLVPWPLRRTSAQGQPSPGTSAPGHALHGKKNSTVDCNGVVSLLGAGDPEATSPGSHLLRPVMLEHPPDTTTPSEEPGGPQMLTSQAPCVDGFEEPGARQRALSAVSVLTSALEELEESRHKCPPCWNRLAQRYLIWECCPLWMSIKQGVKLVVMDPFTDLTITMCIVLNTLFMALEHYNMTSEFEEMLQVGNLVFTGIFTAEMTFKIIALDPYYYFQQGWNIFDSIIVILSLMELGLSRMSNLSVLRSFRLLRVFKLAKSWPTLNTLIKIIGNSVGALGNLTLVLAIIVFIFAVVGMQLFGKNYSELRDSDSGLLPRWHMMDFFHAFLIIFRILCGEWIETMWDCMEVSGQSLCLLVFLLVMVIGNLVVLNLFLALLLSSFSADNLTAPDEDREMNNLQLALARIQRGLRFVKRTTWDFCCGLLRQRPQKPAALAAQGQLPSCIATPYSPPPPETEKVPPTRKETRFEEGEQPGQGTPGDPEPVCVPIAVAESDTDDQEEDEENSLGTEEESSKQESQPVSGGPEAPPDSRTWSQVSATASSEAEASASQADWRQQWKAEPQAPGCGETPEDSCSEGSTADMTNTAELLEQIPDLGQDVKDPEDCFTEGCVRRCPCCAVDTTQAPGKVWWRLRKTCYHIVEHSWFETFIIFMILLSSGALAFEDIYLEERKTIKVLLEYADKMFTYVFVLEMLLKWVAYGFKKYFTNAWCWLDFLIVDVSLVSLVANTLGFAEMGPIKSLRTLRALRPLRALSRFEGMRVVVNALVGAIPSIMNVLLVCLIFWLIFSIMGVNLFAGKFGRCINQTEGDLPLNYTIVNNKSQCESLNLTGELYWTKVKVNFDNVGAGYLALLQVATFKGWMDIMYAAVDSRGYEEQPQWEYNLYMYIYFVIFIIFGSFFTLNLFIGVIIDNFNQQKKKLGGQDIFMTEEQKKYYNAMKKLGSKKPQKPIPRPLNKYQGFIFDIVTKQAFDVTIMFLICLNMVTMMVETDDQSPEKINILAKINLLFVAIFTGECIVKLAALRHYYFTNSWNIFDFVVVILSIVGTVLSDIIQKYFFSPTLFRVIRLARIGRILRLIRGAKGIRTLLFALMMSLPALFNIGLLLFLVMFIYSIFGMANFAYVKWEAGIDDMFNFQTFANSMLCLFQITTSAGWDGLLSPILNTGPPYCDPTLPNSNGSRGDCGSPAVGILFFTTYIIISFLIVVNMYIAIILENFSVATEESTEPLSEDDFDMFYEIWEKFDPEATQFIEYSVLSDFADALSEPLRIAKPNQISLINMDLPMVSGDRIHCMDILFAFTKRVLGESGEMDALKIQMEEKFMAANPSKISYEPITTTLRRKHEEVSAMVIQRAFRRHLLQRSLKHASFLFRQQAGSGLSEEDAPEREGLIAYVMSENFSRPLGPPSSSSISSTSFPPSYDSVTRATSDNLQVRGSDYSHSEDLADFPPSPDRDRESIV

Structure (SMILES): CC1CC=C(c2ccc(=O)n(CC(=O)N3CCc4c(C5CCNC5)cccc43)n2)CC1 (mixture of isomers) [Example 268]
Nav1.1 current amplification rate (%) [1, 3]: 55%
Nav1.5 current amplification rate (%) [2, 4]: 22%

Structure (SMILES): CC1CC=C(c2ccc(=O)n(CC(=O)N3CCc4c(C5CCN(C)C5)cccc43)n2)CC1 (mixture of isomers) [Example 269]
Nav1.1 current amplification rate (%) [1, 3]: 127%
Nav1.5 current amplification rate (%) [2, 4]: 266%

Structure (SMILES): CC1CC=C(c2ccc(=O)n(CC(=O)N3CCc4c(CN5CC6CC5CO6)cccc43)n2)CC1 (mixture of isomers) [Example 278]
Nav1.1 current amplification rate (%) [1, 5]: 204%
Nav1.5 current amplification rate (%) [2, 6]: 27%

Structure (SMILES): CC1CCC(c2ccc(=O)n(CC(=O)N3CCc4c(N5CCOCC5)cccc43)n2)CC1 (mixture of isomers) [Example 472]
Nav1.1 current amplification rate (%) [1, 7]: 387%
Nav1.5 current amplification rate (%) [2, 8]: 56%

Structure (SMILES): CC1CC=C(c2ccc(=O)n(CC(=O)Nc3cc(F)c4ocnc4c3)n2)CC1 (racemic) [Example 241]
Nav1.1 current amplification rate (%) [1, 7]: 260%
Nav1.5 current amplification rate (%) [2, 8]: 26%

Structure (SMILES): CC1CC=C(c2ccc(=O)n(CC(=O)Nc3ccn4ccnc4n3)n2)CC1 (racemic) [Example 242]
Nav1.1 current amplification rate (%) [1, 7]: 97%
Nav1.5 current amplification rate (%) [2, 8]: 10%

Structure (SMILES): CC1CC=C(c2ccc(=O)n(CC(=O)N3CCc4c(N5CCOCC5)cccc43)n2)CC1 (racemic) [Example 245]
Nav1.1 current amplification rate (%) [1, 5]: 393%
Nav1.5 current amplification rate (%) [2, 6]: 32%

Structure (SMILES): CC1CC=C(c2ccc(=O)n(CC(=O)N3CCc4cc(N5CCOCC5)ccc43)n2)CC1 (racemic) [Example 246]
Nav1.1 current amplification rate (%) [1, 7]: 136%
Nav1.5 current amplification rate (%) [2, 8]: 145%

Structure (SMILES): CC1CC=C(c2ccc(=O)n(CC(=O)N3CCc4c3ccnc4Cl)n2)CC1 (racemic) [Example 247]
Nav1.1 current amplification rate (%) [1, 7]: 53%
Nav1.5 current amplification rate (%) [2, 8]: 43%

Structure (SMILES): CC1CC=C(c2ccc(=O)n(CC(=O)N3CCc4c(-c5cccnc5)cccc43)n2)CC1 (racemic) [Example 248]
Nav1.1 current amplification rate (%) [1, 3]: 392%
Nav1.5 current amplification rate (%) [2, 4]: 44%

Structure (SMILES): COc1ncc(-c2cccc3c2CCN3C(=O)Cn2nc(C3=CCC(C)CC3)ccc2=O)cn1 (racemic) [Example 249]
Nav1.1 current amplification rate (%) [1, 3]: 584%
Nav1.5 current amplification rate (%) [2, 4]: 106%

Structure (SMILES): CC1CC=C(c2ccc(=O)n(CC(=O)N3CCc4c(-c5ccncc5)cccc43)n2)CC1 (racemic) [Example 250]
Nav1.1 current amplification rate (%) [1, 3]: 564%
Nav1.5 current amplification rate (%) [2, 4]: 121%

Structure (SMILES): CC1CC=C(c2ccc(=O)n(CC(=O)N3CCc4c(-c5ccnn5C)cccc43)n2)CC1 (racemic) [Example 251]
Nav1.1 current amplification rate (%) [1, 3]: 307%
Nav1.5 current amplification rate (%) [2, 4]: 15%

Structure (SMILES): CC1CC=C(c2ccc(=O)n(CC(=O)N3CCc4c(-c5ccn(C)n5)cccc43)n2)CC1 (racemic) [Example 252]
Nav1.1 current amplification rate (%) [1, 3]: 254%
Nav1.5 current amplification rate (%) [2, 4]: 31%

Structure (SMILES): CC1CC=C(c2ccc(=O)n(CC(=O)N3CCc4c(-c5ccnnc5)cccc43)n2)CC1 (racemic) [Example 253]
Nav1.1 current amplification rate (%) [1, 3]: 455%
Nav1.5 current amplification rate (%) [2, 4]: 85%

Structure (SMILES): CC1CC=C(c2ccc(=O)n(CC(=O)N3CCc4c(-c5cn[nH]c5)cccc43)n2)CC1 (racemic) [Example 254]
Nav1.1 current amplification rate (%) [1, 3]: 309%
Nav1.5 current amplification rate (%) [2, 4]: 74%

Structure (SMILES): CC1CC=C(c2ccc(=O)n(CC(=O)N3CCC(c4ccccc4)CC3)n2)CC1 (racemic) [Example 256]
Nav1.1 current amplification rate (%) [1, 7]: 36%
Nav1.5 current amplification rate (%) [2, 8]: −30%

Structure (SMILES): CC1CC=C(c2ccc(=O)n(CC(=O)N3CC=C(c4ccccc4)CC3)n2)CC1 (racemic) [Example 257]
Nav1.1 current amplification rate (%) [1, 3]: 45%
Nav1.5 current amplification rate (%) [2, 4]: 0%

Structure (SMILES): CC1CC=C(c2ccc(=O)n(CC(=O)N3CCN(c4ccccc4)CC3)n2)CC1 (racemic) [Example 258]
Nav1.1 current amplification rate (%) [1, 3]: 79%
Nav1.5 current amplification rate (%) [2, 4]: 4%

Structure (SMILES): CC1CC=C(c2ccc(=O)n(CC(=O)N3CCC(c4ccncc4)CC3)n2)CC1 (racemic) [Example 259]
Nav1.1 current amplification rate (%) [1, 7]: 71%
Nav1.5 current amplification rate (%) [2, 8]: 2%

Structure (SMILES): CC1CC=C(c2ccc(=O)n(CC(=O)N3CCC(c4ccccn4)CC3)n2)CC1 (racemic) [Example 260]
Nav1.1 current amplification rate (%) [1, 7]: 13%
Nav1.5 current amplification rate (%) [2, 8]: −6%

Structure (SMILES): CC1CC=C(c2ccc(=O)n(CC(=O)N3CCN(c4ccncc4)CC3)n2)CC1 (racemic) [Example 261]
Nav1.1 current amplification rate (%) [1, 7]: 60%
Nav1.5 current amplification rate (%) [2, 8]: 1%

Structure (SMILES): CN(c1ccc(=O)n(CC(=O)N2CCc3c(N4CCOCC4)cccc32)n1)C1CCCC1 [Example 565]
activation at 1 µM [1]: 62%

Structure (SMILES): CN(CC1(C)CC1)c1ccc(=O)n(CC(=O)N2CCc3c(N4CCOCC4)cccc32)n1 [Example 568]
activation at 1 µM [1]: 42%

Structure (SMILES): COc1cc(C)cc(F)c1-c1ccc(=O)n(CC(=O)Nc2ccn3ncnc3c2)n1 [Example 571]
activation at 10 µM [1]: 24%

Further lines, with some results ahead:

Nav1.1 current amplification rate (%) [1, 7]: 310%
Structure (SMILES): COc1nc2cc(NC(=O)Cn3nc(C4=CCC(C)CC4)ccc3=O)ccc2o1 (racemic) [Example 239]
Nav1.5 current amplification rate (%) [2, 8]: 31%

Nav1.1 current amplification rate (%) [1, 7]: 241%
Structure (SMILES): Cc1noc2cc(NC(=O)Cn3nc(C4=CCC(C)CC4)ccc3=O)ccc12 (racemic) [Example 240]
Nav1.5 current amplification rate (%) [2, 8]: 174%

Nav1.1 current amplification rate (%) [1, 7]: 276%
Structure (SMILES): CC1CC=C(c2ccc(=O)n(CC(=O)Nc3ccc4oc(C(F)F)nc4c3)n2)CC1 (racemic) [Example 243]
Nav1.5 current amplification rate (%) [2, 8]: 19%

Nav1.1 current amplification rate (%) [1, 7]: 32%
Structure (SMILES): CC1CC=C(c2ccc(=O)n(CC(=O)Nc3cccc4nccn34)n2)CC1 (racemic) [Example 255]
Nav1.5 current amplification rate (%) [2, 8]: 15%

activation at 1 µM [1]: 80%
Structure (SMILES): CCC1CC=C(c2ccc(=O)n(CC(=O)Nc3ccc4ncnn4c3)n2)CC1 (stereo not drawn) [Example 555]

activation at 1 µM [1]: 13%
Structure (SMILES): CN(c1ccc(=O)n(CC(=O)Nc2ccn3ncnc3c2)n1)C1CCCC1 [Example 556]

activation at 1 µM [1]: 17%
Structure (SMILES): O=C(Cn1nc(N2CCC3(CC3)C(F)(F)C2)ccc1=O)Nc1ccn2ncnc2c1 [Example 557]

activation at 10 µM [1]: 11%
Structure (SMILES): CN(c1ccc(=O)n(CC(=O)Nc2ccn3ncnc3c2)n1)C1CC1 [Example 558]

activation at 10 µM [1]: 34%
Structure (SMILES): CN(CC1CC1)c1ccc(=O)n(CC(=O)Nc2ccn3ncnc3c2)n1 [Example 559]

activation at 1 µM [1]: 12%
Structure (SMILES): N#Cc1ccc(NC(=O)Cn2nc(N3CCC4(CC4)C(F)(F)C3)ccc2=O)cn1 [Example 560]

activation at 1 µM [1]: 17%
Structure (SMILES): CN(c1ccc(=O)n(CC(=O)Nc2ccc(C#N)nc2)n1)C1CCCC1 [Example 561]

activation at 1 µM [1]: 247%
Structure (SMILES): CN(c1ccc(=O)n(CC(=O)N2CCc3c(-c4ccnnc4)cccc32)n1)C1CCCC1 [Example 562]

activation at 1 µM [1]: 50%
Structure (SMILES): CN(c1ccc(=O)n(CC(=O)Nc2ccc3cnccc3c2)n1)C1CCCC1 [Example 563]

activation at 10 µM [1]: 73%
Structure (SMILES): CN(c1ccc(=O)n(CC(=O)Nc2cnc3cccnc3c2)n1)C1CCCC1 [Example 564]

activation at 1 µM [1]: 98%
Structure (SMILES): Cc1ccc(-c2ccc(=O)n(CC(=O)Nc3ccn4ncnc4c3)n2)c(F)c1 [Example 566]

activation at 50 µM [1]: 281%
Structure (SMILES): CN(CC1(C)CC1)c1ccc(=O)n(CC(=O)Nc2ccc3cnccc3c2)n1 [Example 567]

activation at 50 µM [1]: 393%
Structure (SMILES): CN(c1ccc(=O)n(CC(=O)Nc2ccc3cnccc3c2)n1)C1CC2(CC2)C1 [Example 569]

activation at 1 µM [1]: 99%
Structure (SMILES): CN(c1ccc(=O)n(CC(=O)N2CCc3c(N4CCOCC4)cccc32)n1)C1CC2(CC2)C1 [Example 570]
